What all share (assay type): cell-based
Data set [1] relates to NK cells. In words: NK-cell phenotype by flow cytometry after thawing. The protocol: (§1) Polyclonally activated T cells and expanded NK cells were expanded for 14 and 12 days respectively and cryopreserved using freezing media (FM) with or without TAPI-2 prepared as described in Example 1. Cryovials were then stored in liquid nitrogen tank.
Flow analysis was performed 120 minutes after thawing (except for NKG2D which expression was analyzed immediately after thawing).
(In general: In flow cytometry, cells or beads pass a laser one at a time.)

For a further data set, the system named is T cells. In words: CD62L expression on T cells after cryopreservation and thawing. The procedure: (§2) A freezing medium (FM) was prepared having 50% RPMI, 40% FBS, 10% DMSO. FM was supplemented with the ADAM17 inhibitor TAPI-2 at amounts indicated in this example. Additionally, a wash medium (WM) was prepared having 50% RPMI, 40% FBS, 10% DMSO and supplemented with TAPI-2 at amounts indicated in this example.
(§3) Experiments were generally performed using in-vitro NK cells and T cells that were isolated and expanded for 14 days in culture. On day 14 of the culture, the NK cells and T cells were cryopreserved the using FM with or without TAPI-2. Then, cells were thawed using WM with or without TAPI-2.
CD62L expression is maintained in T cells in presence of TAPI-2.
Next, T cells were cryopreserved in freezing media without TAPI-2.

Data set [2] deals with NK cells. The experiment in a line: CD16 expression on NK cells after cryopreservation and thawing. The protocol: as §2, §3
CD16 expression is maintained in NK cells in presence of TAPI-2.

For the next data set, the system named is NK cells and T cells. In words: Cell viability after thawing, trypan blue exclusion. The following applies: TAPI-2 added to freezing medium; immediately and 120 minutes after thawing; FIGS. 6A-6B. The procedure:
as §1
Cryovials were thawed in water bath with cell wash performed, cell recovery (FIGS. 5A-5B) and viability (FIGS. 6A-6B) was assessed immediately after thawing. Cell viability was also assessed 120 minutes after thawing (FIGS. 6A-6B). Trypan blue exclusion method was use to evaluate cell viability.

Turning to `CC(C)C[C@H](CC(=O)NO)C(=O)N[C@H](C(=O)N[C@@H](C)C(=O)NCCN)C(C)(C)C` [TAPI-2], in the data set with NK cells [1] (TAPI-2 added to freezing medium, summary statement), the phenotype entry was “did not negatively affect”. Also, the NK-cell phenotype result in the data set with NK cells [1] (TAPI-2 in the freezing media, flow analysis 120 minutes after thawing (NKG2D immediately after thawing), FIG. 7) is given as “not affected”. Further, in the data set with T cells (FM containing 50 μM TAPI-2, thawed and not washed, immediately after thawing and 2 hours thereafter, FIG. 3), the “CD62L expression after thawing” value is reported as “able to maintain CD62L expression”. For the same compound, in the data set with T cells (T cells cryopreserved in FM containing TAPI-2, FIG. 3), the “CD62L expression versus level before cryopreservation” value was “retained expression of CD62L to a level that was equal to that before cells were subjected to cryopreservation”. In addition, the “CD62L expression after washing with wash medium containing TAPI-2” value in the data set on T cells (frozen in freezing media without TAPI-2, wash media with 10 μM TAPI-2 (Thaw+), FIG. 4) is reported as “showed CD62L expression”. Besides, the “CD16 expression after thawing” value in the data set on NK cells [2] (FM containing 50 μM TAPI-2, thawed and not washed, immediately after thawing and 2 hours thereafter, FIG. 1) is reported as “able to maintain CD16 expression”. Also, in the data set with NK cells [2] (NK cells cryopreserved in FM containing TAPI-2, FIG. 1), the “CD16 expression versus level prior to cryopreservation” value was “retained expression of CD16 to the same level as prior cryopreservation”. Moreover, in the data set with NK cells [2] (frozen in freezing media without TAPI-2, wash media with 10 μM TAPI-2 (Thaw+), FIG. 2), the “CD16 expression after washing with wash medium containing TAPI-2” value is on record as “showed CD16 expression”. The cell viability result in the data set with NK cells and T cells is listed as “did not negatively affect”.

The values are drawn from patent US12520839B2, “Methods and compositions for cryopreservation of cell therapies” (The George Washington University, priority 2020, dated 2026).
